Laboratory results taken from US20230357292A1, “MULTI-COORDINATE GOLD-PHOSPHINE COMPOUNDS AND METHOD OF USE” (University of Kentucky Research Foundation, priority 2020, published 2023).
Entries after “also recorded” stand apart in the source; their conditions may differ. Like-named read-outs stand apart in the source and are kept apart here.

Assays:
MDA-MB-231 cells [1] = settings: 1 μM for 15 h, FACS
Experimental: MDA-MB-231 cells were seeded at a density of 5×10^5 cells/well in a 6-well clear bottom plate with a final media volume of 2 mL. The cells were allowed to adhere overnight at 37° C. A stock of AuPhos-89 was prepared fresh in DMSO/DMEM (% v/v=20:80) and added to the desired well at a concentration of 1 μM with a final volume of 2.5 mL and incubated for 15 h at 37° C. A stock of H2O2 was prepared in PBS and the cells treated at a final concentration of 2 mM for 3 hours and used as positive control. When ready for analysis, medium was removed and the wells washed with 5 mL of PBS. The cells were trypsinized (1 mL), 5 mL of DMEM were added to each well, and total volume collected and centrifuged to pellet the cells. The cells were resuspended in 2 mL of fresh media, counted, and reconstituted to a concentration of 1×10^5 cells/mL. The cells were centrifuged again, and the pellet suspended in 500 μL of Annexin binding buffer. To each sample was added 5 μl of Annexin V-FITC and 5 μl PI and incubated in the dark at room temperature for 5 minutes. The samples were then subjected to FACS analysis.

MDA-MB-231 cells [2] = assay: Western blotting of apoptotic markers and AMPK; settings: 1 μM, indicated times
Experimental: Furthermore, to determine if AuPhos-89 induces apoptosis through the caspase-mediated apoptotic pathway, western blotting was performed to assess the induction of caspases and cleaved PARP (FIG. 7C). […] Global changes in proteins were investigated using quantitative proteomics after 12 h of exposing MDA-MB-231 cells to AuPhos-89 at 1 μM. In this tandem mass tag (TMT)-based quantification, protein was extracted from cryo-preserved cell pellets and following tryptic digestion, TMT-labeling was performed. After fractionation, tandem LC-MS/MS was conducted and database search against HUMAN protein database was carried out. Proteins of relative quantification were divided into two categories. A quantitative ratio over 1.5 was considered upregulation while a quantitative ratio less than 1/1.5 was considered as downregulation.

MDA-MB-231 cells [3] = settings: 1 μM; 24 h, 48 h, 72 h
Experimental: MDA-MB-231 cells were seeded at a density of 5×10^5 cells/well in a 6-well clear bottom plate with a final media volume of 2 mL and allowed to adhere overnight 37° C. […] After the desired treatment period, the medium was removed and added to a 15 mL Falcon tube. The wells were washed with 5 mL of PBS and added to the Falcon tube. The cells were trypsinized (1 mL) and added 5 mL of fresh DMEM. All media were combined, and the tube centrifuged at 2000 rpm for 5 minutes to collect the pellet. The medium was decanted, and the pellet suspended in 1 mL of PBS, which was then transferred to a 1 mL Eppendorf tube, centrifuged at 2000 rpm for 5 minutes and suspended in 70% EtOH/PBS solution. These solutions were stored at 4° C. until ready for analysis. […] The cells were washed twice with PBS (1 mL) and suspended in a 50 μL of RNase solution (100 μg/mL) and 200 μL of a 50 μg/mL PI solution. The solutions were then filtered through a 5 mL polystyrene round-bottom tube fit with a cell-strainer cap. The samples were then analyzed with FACS.

MDA-MB-231 cells [4] = settings: TMRE or JC-1 assay, short exposure periods
Experimental: MDA-MB-231 cells were plated at a density of 5×10^5 cells/plate in a 6 well plate and allowed to adhere overnight at 37° C. […] The cells were incubated (37° C., 5% CO2) for 1 h at this concentration. Carbonyl cyanide 3-chlorophenylhydrazone (CCCP) was prepared as a stock in DMSO and added at a final concentration of 100 μM, and the cells were treated for 1 h. It was used as a positive control. After the indicated treatment time, a working solution of the JC-1 dye (Cayman Chemicals, Cat. #15003) was prepared by adding 100 μL of dye into 900 μL of DMEM. Note: the working solution of JC-1 should always be prepared fresh and not stored for long-term use. Then, 100 μL/mL of working solution of the JC-1 dye was added to the cells and incubated at 37° C. for 20 minutes. The cells were harvested and resuspended in 2 mL PBS. The cells were analyzed on a flow cytometer with 488 nm excitation and appropriate emission filters. Gated cells, excluded debris and the CCCP-treated sample was used to performed standard compensation.

[5] = tested on: 4T1 cells engineered to express RFP; settings: 10 mg kg−1 day−1, six treatments, thrice a week, compared with controls
From the text: Murine TNBC 4T1 cells engineered to express RFP were also subcutaneously injected into flanks of immunocompromised mice in the presence of Matrigel.

4T1 tumor [6] = assay: In vivo comparative experiment of AuPhos-89 and cisplatin, 4T1, IP; parameters: species or system BALB/c mice
Experimental: Mice were implanted with 2,000,000 4T1 cells subcutaneously on their flanks. […] The control group was injected with a PBS solution containing 1.5% DMSO and 12% Kolliphor. Injection and tumor-size/body-weight measurement was performed three days a week.
Mice organs (heart, lung, liver, kidney, spleen, and tumor) were fixed in freshly prepared paraformaldehyde (4% in PBS), the fixation time was 24 hours. And those processed for paraffin sectioning. The organs sections of 5 μm were stained with H&E staining and used for histological examination of the organs and tumor. A total of 5 sections per tissues (spanning the full depth of the organ) were examined and photographed using a Nikon Eclipse 55i microscope. […]

[7] = 10 mg kg−1 IV, 1 h and 24 h; heart, lung, liver, spleen, kidney, tumor
Experimental: With four mice inoculated with 4T1 (1,000,000 cells), after 20 days, AuPhos-89 was inserted into mice by IV administration (0.1 mL, 10 mg/kg). Each tissue was obtained by sacrificing the mice (n=2) 1 and 24 hours later. […] The solution turned yellow and diluted as needed to measure the gold content using a Graphite Furnace Atomic Absorption Spectrometer. Before measuring all samples, the standard solution curves were measured.
After respective time points of 1 h and 24 h, mice were euthanized. Organs including heart, lung, liver, spleen, kidney, and tumor were excised and the gold concentration was analyzed by GF-AAS.

MDA-MB-231 cells [8] = settings: live MDA-MB-231 cells, mito-stress test
Experimental: (§1) Analysis. The initial step of Seahorse XF96 analysis included optimization of the cell density. In this stage, isolated mitochondria (30 μg) or MDA-MB-231 cells were seeded at a range of densities from 2000 cells/well to 100,000 cells/well, followed by optimization of the FCCP injection concentration used (0.6 μM of 1.2 μM). […] All Seahorse XF96 experiments with MDA-MB-231 were performed under these conditions. The cells were seeded the night prior to the experiment with a final volume of 100 μL and incubated overnight at 37° C. AuPhos-89 was prepared as a stock in DMSO/DMEM (% v/v=20:80) and diluted to a working concentration of 100 μM with Seahorse XF96 assay buffer and then subsequently serial diluted by 10× to achieve multiple concentrations. The assay was performed using a pneumatic injection method of AuPhos-89, with the final injection concentrations of 0.01, 0.1, 1, and 10 μM. This was followed by injection of oligomycin (1.5 μM), FCCP (0.6 μM) and rotenone/antimycin A (0.5 μM).

[9] = tested on: isolated mitochondria from the liver of C57BL/6J mice; settings: 1 μM, in the presence of oligomycin; dose-dependent up to about 10 μM
Experimental: as §1

[10] = 37° C.
Experimental: To determine the stability of gold compounds under physiological conditions in the presence of biological nucleophiles, UV absorbance measurements were conducted over a 24 h time period. Briefly, AuPhos was dissolved in media from a DMSO stock. To this solution was added 10 mM L-glutathione.
To study the stability of the gold(III) compounds in solution, the UV-vis profile of the representative compounds was evaluated in biologically relevant media at physiological temperature of 37° C. Given the common limitation of gold compounds to promiscuously bind thiol containing biomolecules, the interaction of gold(III) complex AuPhos89 was investigated with physiologically relevant concentration of L-glutathione (10 mM) in Dubelcco modified essential medium (DMEM).

[11] = equimolar glutathione, aqueous solution, 24 h
Experimental: All spectra were recorded using an Agilent Technologies 1100 series HPLC instrument and an Agilent Phase Eclipse Plus C18 column (4.6 mm×100 mm; 3.5 μm particle size). AuPhos-89 and glutathione were prepared as 1 mM stock in DMSO and water, respectively. Equimolar amounts were mixed and the solutions were measured at 0, 1, 3, and 24 h by HPLC. The parameters used in the HPLC were as follows: flow rate, 1 mL/min; λ=280 nm; eluent A=H2O with 0.1% TFA; Eluent B═CH3CN with 0.05% HCOOH; Solvent gradient: 0 min (100:0 H2O:CH3CN), 10 min (0:100 H2O:CH3CN), 15 min (100:0 H2O:CH3CN).

4T1 tumor [12] = tested on: 4T1 tumor
Experimental: Female, 5 week-old BALB/c mice were purchased from Charles River Laboratories (Wilmington, MA). All mice were quarantined for 1 week prior to use and kept in micro-isolator cages (four mice per cage) in a temperature- and humidity-controlled environment as per the Division of Laboratory Animal Research (DLAR) of University of Kentucky. All mice were maintained in a pathogen-free environment under the care of DLAR of University of Kentucky. The study was performed in compliance with the NIH guidelines (NIH Publication No. 85-23 Rev. 1985) for the care and use of laboratory animals and all experimental procedures were monitored and approved by the Institutional Animal Care and Use Committee (IACUC) of University of Kentucky (USA).
The control group was injected with a PBS solution containing 1% DMSO and 1% Kolliphor.
A separate group of mice was administered equal volumes of vehicle control at the same time points and via the analogous route.

MDA-MB-231 (breast) = assay: Cell viability, crystal violet assay, MDA-MB-231; type: cell-based, human
From the text: The plates were washed with water and dried again.

## [Cl-].[Cl][Au-]1([c]2ccccc2-c2ccccn2)[P+](c2ccccc2)(c2ccccc2)c2ccccc2[P+]1(c1ccccc1)c1ccccc1 [AuPhos-89, (2-phenylpyridine)[1,2-Bis(diphenylphosphino)benzene]gold(III) Dichloride]
MDA-MB-231 cells [1]
  population of cells in early to late apoptosis: ~40%
MDA-MB-231 cells [2]
  induction of caspases, cleaved PARP and AMPK: activate cleaved caspases, PARP and the cellular energy regulator, AMPK
MDA-MB-231 cells [3]
  cell cycle distribution: no significant changes to the cell cycle
MDA-MB-231 cells [4]
  mitochondrial membrane potential (MMP): depolarization of the MMP
[5]
  tumor growth: significant attenuation of growth
4T1 tumor [6]; 4T1 tumor-bearing mice, treated versus control
  liver metastasis (H&E sections): can inhibit liver metastasis; also recorded: not visible; also recorded: no palpable metastatic lesions
4T1 tumor [6]; AuPhos-89 10 mg kg−1 IP, cisplatin 3 mg kg−1 IP
  tumor inhibition compared with the control group: significant tumor inhibition
4T1 tumor [6]; intraperitoneal administration
  body weight: kept constant
4T1 tumor [6]; mouse, in vivo, ip
  survival: increased rates of survival
4T1 tumor [6]; six treatments, thrice a week, IP, AuPhos-89 10 mg kg−1, cisplatin 3 mg/kg, versus vehicle control
  tumor volume: reduced tumor volume
[7]
  tissue biodistribution, Au levels in organs: confirmed the uptake
MDA-MB-231 cells [8]
  ATP production: diminished ATP production
  proton leak: acutely induced proton leak
[9]
  mitochondrial oxygen consumption rate (OCR): increased oxygen consumption
[10]; 10 mM L-glutathione in media (DMEM), 24 h
  stability, UV-vis absorption with L-glutathione: no alteration to the absorption band
[10]; RPMI-1640, 24 h
  stability, UV-vis absorption in RPMI-1640: no changes to the absorption spectra
[11]
  stability with L-GSH, HPLC chromatogram: little change
4T1 tumor [12]; 10 mg kg−1 IV, 3 weekly injections, n=5, versus vehicle control
  tumor growth rate: decreased significantly
4T1 tumor [12]; end of the observation period
  body weight: did not exhibit significant change
MDA-MB-231 (breast); MDA-MB-231 (breast), 4,000 cells/well, treated 72 h, mean ± SD (n = 3)
  IC50: 450 ± 140 nM
MDA-MB-231 (breast); cell line not stated at the place (structure-activity relationship studies)
  IC50: 220 nM
